Laboratory results as given in patent US6911443B2 (Bayer Aktiengesellschaft, priority 2000, dated 2005).
Like-named read-outs stand apart in the source and are kept apart here.

Target: T1, human Syk (GST-Syk) (Homo sapiens, UniProt P43405)
T1 construct: A cDNA fragment encoding human Syk openreading frame was cloned; made in house; host or cells: Sf21 insect cells (baculovirus, transfer vector pAcG2T)
Assay: Syk tyrosine kinase inhibitory assay
Format: biochemical
Source text: [Syk Tyrosine Kinase Inhibitory Assay]
(1) Preparation of Syk Protein
A cDNA fragment encoding human Syk openreading frame was cloned from total RNA of human Burkitt's lymphoma B cell lines, Raji (American Type Culture Collection), with the use of RT-PCR method. The cDNA fragment was inserted into pAcG2T (Pharmingen, San Diego, Calif.) to construct a baculovirus transfer vector. Then the vector, together with the linearized baculovirus (BaculoGold™, Pharmingen), was used to transfect Sf21 cells (Invitrogen, San Diego, Calif.).
Generated recombinant baculovirus was cloned and amplified in Sf21 cells. Sf21 cells were infected with this amplified high titer virus to produce a chimeric protein of Syk kinase fused by glutathione-S-transferase (GST).
The resulting GST-Syk was purified with the use of glutathione column (Amersham Pharmacia Biotech AB, Uppsala, Sweden) according to the manufacturer's instruction.
(2) Synthesize of a Peptide
Next, a peptide fragment of 30 residues including two tyrosine residues, […], was synthesized by a peptide synthesizer. The N-terminal of the fragment was then biotinylated to obtain biotinylated activation loop peptide (AL).
(3) The Measurement of Syk Tyrosine Kinase Activity
All reagents were diluted with the Syk kinase assay buffer (50 mM Tris-HCl (pH 8.0), 10 mM MgCl2, 0.1 mM Na3VO4, 0.1% BSA, 1 mM DTT). First, a mixture (35 μl) including […] of GST-Syk and 0.5 μg of AL was put in each well in 96-well plates. Then 5 μl of a test compound in the presence of 2.5% dimethylsulfoxide (DMSO) was added to each well. To this mixture was added […] (10 μl) to initiate the kinase reaction. The final reaction mixture (50 μl) consists of 0.65 nM GST-Syk, 3 μM AL, 30 μM ATP, a test compound, 0.25% DMSO, and a Syk kinase assay buffer.
The mixture was incubated for 1 hr at room temperature, and the reaction was terminated by the addition of 120 μl of termination buffer (50 mM Tris-HCl (pH 8.0), 10 mMEDTA, 500 mM NaCl, 0.1% BSA). The mixture was transferred to streptavidin-coated plates and incubated for 30 min at room temperature to combine biotin-AL to the plates. After washing the plates with Tris-buffered saline (TBS) (50 mM Tris-HCl (pH 8.0), 138 mM NaCl, 2.7 mM KCl) containing 0.05% Tween-20 for 3 times, 100 μl of antibody solution consisting of 50 mM Tris-HCl (pH 8.0), 138 mM NaCl, 2.7 mM KCl, 1% BSA, 60 ng/ml anti-phosphotyrosine monoclonal antibody, 4G10 (Upstate Biotechnology), which is labeled with europium by Amersham Pharmacia's kit in advance, was added and incubated at room temperature for 60 min. After washing, 100 μl of enhancement solution (Amersham pharmacia Biotech) was added and then time-resolved fluorescence was measured by multi-label counter ARVO (Wallac Oy, Finland) at 340 nm for excitation and 615 nm for emission with 400 msec of delay and 400 msec of window.

[1] = in vitro, compounds as yielded by solid phase synthesis, purity about 40 to 90%, read-out: Activity grade (IC50 class)
[2] = Table 17, IC50 classes, read-out: Activity grade
[3] = Table 16, read-out: Activity grade
[4] = Table 11, read-out: Activity grade
[5] = in vitro, compounds as yielded by solid phase synthesis, purity about 40 to 90%
[6] = Table 13, read-out: Activity grade

COc1ccc(-c2cc3nccn3c(N(C)C3CCN(C)C3)n2)cc1OC (stereo not shown) [Example 9-74]
IC50 [1]: 500 to 2000 nM

COc1ccc(-c2cc3nccn3c(N3CCC(N4CCCCC4)CC3)n2)cc1OC [Example 9-63]
IC50 [1]: 2000 to 10000 nM

COc1ccc(Nc2nc(-c3ccc(OC)c(OC)c3)cc3nccn23)c(O)c1 [Example 11-93]
IC50 [1]: < 500 nM

CCOCCOc1ccc(-c2cc3nccn3c(SCC)n2)cc1OCCOCC [Example 6-2]
IC50 [1]: 500 to 2000 nM

COc1ccc(-c2cc3nccn3c(Nc3cccc(C(=N)N)c3)n2)cc1OC [Example 11-66]
IC50 [1]: < 500 nM

COc1ccc(-c2cc3nccn3c(Nc3ccc(C(N)=O)c(N)c3)n2)cc1OC [Example 11-129]
IC50 [1]: < 500 nM

COc1ccc(-c2cc3nccn3c(Sc3ccncc3N)n2)cc1OC [Example 16-7]
IC50 (Table 15, read-out: Activity grade): < 500 nM

COc1ccc(-c2cc3nccn3c(Nc3cc(N(C)C)ccc3C(N)=O)n2)cc1OC [Example 13]
IC50 [2]: < 500 nM | IC50 [1]: < 500 nM

CCSc1nc(-c2ccc(N(C)CCCN3CCOCC3)c(OC)c2)cc2nccn12 [Example 17-17]
IC50 [3]: < 500 nM

COCCN(C)c1ccc(-c2cc3nccn3c(Nc3ccc(Br)cc3)n2)cc1OC [Example 12-46]
IC50 [4]: < 500 nM

COC(=O)CCSc1nc(-c2ccc(OC)c(OC)c2)cc2nccn12 [Example 9-90]
IC50 [1]: < 500 nM

COC(=O)c1ccc(Nc2nc(-c3ccc(OC)c(OC)c3)cc3nccn23)cc1 [Example 11-26]
IC50 [1]: < 500 nM

COc1ccc(-c2cc3nccn3c(N3CCN(c4ccccc4OC)CC3)n2)cc1OC [Example 9-34]
IC50 [1]: 2000 to 10000 nM

COc1ccc(-c2cc3nccn3c(Nc3ccc(C)cc3)n2)cc1OC [Example 11-9]
IC50 [1]: < 500 nM

CCSc1nc(-c2ccc(C)c(S(=O)(=O)NCCO)c2)cc2nccn12 [Example 2-5]
IC50 [1]: < 500 nM

COc1ccc(-c2cc3nccn3c(Sc3ccccc3OC)n2)cc1OC [Example 13-2]
IC50 [1]: < 500 nM

COc1ccc(-c2cc3ncnn3c(Nc3ccc(CCC(=O)O)cc3)n2)cc1OC [Example 9-20]
IC50 [1]: < 500 nM

COc1ccc(-c2cc3nccn3c(Nc3cccc(O)c3)n2)cc1OC [Example 11-30]
IC50 [1]: < 500 nM

CCSc1nc(-c2ccc(S(=O)(=O)N3CCOCC3)c(OC)c2)cc2nccn12 [Example 2-6]
Activity grade (IC50 class) [5]: C-D

COc1ccc(-c2cc3nccn3c(Nc3cccc(Br)c3)n2)cc1OC [Example 11-52]
IC50 [1]: < 500 nM

CCN(CC)CCNc1ccc(C(N)=O)c(Nc2nc(-c3ccc(OC)c(OC)c3)cc3nccn23)c1 [Example 12]
IC50 [2]: < 500 nM | IC50 [1]: < 500 nM

COc1ccc(-c2cc3nccn3c(Nc3ccccc3F)n2)cc1OC [Example 11-53]
IC50 [1]: < 500 nM

COc1ccc(-c2cc3nccn3c(Nc3ccc4c(c3)CCC(C(=O)O)C4)n2)cc1OC (stereo not shown) [Example 11-5]
IC50 [1]: < 500 nM

COc1ccc(-c2cc3nccn3c(Nc3ccc(F)cc3F)n2)cc1OC [Example 11-54]
IC50 [1]: < 500 nM

COc1ccc(-c2cc3nccn3c(Nc3ccc(/C=C/C(=O)OC(C)(C)C)cc3C(N)=O)n2)cc1OC [Example 11-14]
IC50 [1]: < 500 nM

COc1ccc(-c2cc3nccn3c(Nc3ccc(CC#N)cc3)n2)cc1OC [Example 11-63]
IC50 [1]: < 500 nM

COc1ccc(-c2cc3nccn3c(SCc3ccccc3Cl)n2)cc1OC [Example 9-27]
IC50 [1]: < 500 nM

CCSc1nc(-c2ccc(S(=O)(=O)NCCN(C)C)c(OC)c2)cc2nccn12 [Example 2-8]
Activity grade (IC50 class) [5]: C-D

CCSc1nc(-c2ccc(OC(C)=O)c(OC)c2)cc2nccn12 [Example 3-7]
IC50 [1]: < 500 nM

COc1ccc(Nc2nc(-c3ccc(OC)c(OC)c3)cc3nccn23)cn1 [Example 12-4]
IC50 [4]: < 500 nM

COc1ccc(-c2cc3nccn3c(N(C)c3ccc(C(=O)O)cc3)n2)cc1OC [Example 11-42]
Activity grade (IC50 class) [5]: C-D

COc1ccc(-c2cc3nccn3c(Nc3cc([N+](=O)[O-])ccc3C(N)=O)n2)cc1OC [Example 11-109]
IC50 [1]: < 500 nM

COc1ccc(-c2cc3nccn3c(N3CCC(C)CC3)n2)cc1OC [Example 9-62]
IC50 [1]: 2000 to 10000 nM

COc1ccc(-c2cc3nccn3c(Nc3ccc(N(C)C)cc3C(N)=O)n2)cc1OC [Example 32]
IC50 [2]: < 500 nM

COc1ccc(-c2cc3nccn3c(Oc3ccc(Br)cc3)n2)cc1OC [Example 14-6]
IC50 [6]: 500 to 2000 nM

COc1ccc(-c2cc3nccn3c(N(C)c3ccccn3)n2)cc1OC [compound 4]
IC50 [2]: 2000 to 10000 nM

CCSc1nc(-c2ccc(OC3CCCCC3)c(OC)c2)cc2nccn12 [Example 3-6]
IC50 [1]: 500 to 2000 nM

COc1cc(-c2cc3nccn3c(Nc3ccc4cn[nH]c4c3)n2)ccc1N1CCOCC1 [Example 12-59]
IC50 [4]: < 500 nM

CCCCCSc1nc(-c2ccc(OC)c(OC)c2)cc2nccn12 [Example 14-26]
IC50 [6]: 500 to 2000 nM

COc1ccc(-c2cc3nccn3c(Nc3ccccc3C#N)n2)cc1OC [Example 11-121]
IC50 [1]: 500 to 2000 nM

COc1ccc(-c2cc3nccn3c(NC3CCCCC3)n2)cc1OC [Example 15-4]
IC50 (Table 14, read-out: Activity grade): 500 to 2000 nM

CNC(=O)CSc1nc(-c2ccc(OC)c(OC)c2)cc2nccn12 [Example 14-33]
IC50 [6]: < 500 nM

CNc1nc(-c2ccc(OC)c(OC)c2)cc2nccn12 [Example 9-12]
IC50 [1]: 500 to 2000 nM

CCSc1nc(-c2ccc(NCCCN(C)C)c(OC)c2)cc2nccn12 [Example 17-13]
IC50 [3]: < 500 nM

COc1ccc(-c2cc3nccn3c(Nc3cccc(N)n3)n2)cc1OC [Example 12-29]
IC50 [4]: < 500 nM

COc1ccc(-c2cc3nccn3c(Sc3cc(OC)c(OC)c(OC)c3)n2)cc1OC [Example 13-8]
IC50 [1]: < 500 nM

COc1ccc(-c2cc3nccn3c(Nc3ccc(F)cc3C(=O)O)n2)cc1OC [Example 11-41]
IC50 [1]: < 500 nM

COc1ccc(-c2cc3nccn3c(Nc3ccc(NCCCN4CCOCC4)cc3)n2)cc1OC [Example 11-90]
IC50 [1]: < 500 nM

C=CCOc1ccc(-c2cc3nccn3c(SCC)n2)cc1OC [Example 3-2]
IC50 [1]: < 500 nM

CNC(=O)c1cccc(Nc2nc(-c3ccc(OC)c(OC)c3)cc3nccn23)c1 [Example 11-72]
IC50 [1]: < 500 nM

CCSc1nc(-c2ccc(OC)c(OCCCN3CC[C@H](N(C)C)C3)c2)cc2nccn12 [Example 5-5]
IC50 [1]: 500 to 2000 nM

COc1cc(-c2cc3nccn3c(Nc3ccc(C(F)(F)F)cc3)n2)ccc1N1CCOCC1 [Example 12-49]
IC50 [4]: < 500 nM

COc1ccc(-c2cc3nccn3c(Nc3ccc(CCC4=NC(C)(C)CO4)cc3)n2)cc1OC [Example 9-22]
IC50 [1]: < 500 nM

COc1ccc(Nc2nc(-c3ccc(N4CCOCC4)c(OC)c3)cc3nccn23)c(C(N)=O)c1 [Example 9-98]
IC50 [1]: < 500 nM

COc1ccc(-c2cc3ncnn3c(Nc3ccc4ncccc4c3)n2)cc1OC [Example 9-18]
Activity grade (IC50 class) [5]: C-D

COc1ccc(-c2cc3ncnn3c(Nc3ccc(/C=C/C(=O)O)cc3)n2)cc1OC [Example 9-19]
IC50 [1]: < 500 nM

CNS(=O)(=O)c1ccccc1Nc1nc(-c2ccc(OC)c(OC)c2)cc2nccn12 [Example 11-122]
IC50 [1]: < 500 nM

CCCNc1nc(-c2ccc(OC)c(OC)c2)cc2nccn12 [Example 9-87]
IC50 [1]: < 500 nM

CCCCOc1ccc(Nc2nc(-c3ccc(OC)c(OC)c3)cc3nccn23)cc1 [Example 11-94]
IC50 [1]: 2000 to 10000 nM

COc1ccc(-c2cc3nccn3c(Nc3ccc4c(c3)[nH]c(=O)n4C)n2)cc1OC [Example 11-118]
IC50 [1]: < 500 nM

COc1ccc(-c2cc3nccn3c(Nc3ccc(CC(=O)O)cc3)n2)cc1OC [Example 11-22]
IC50 [1]: < 500 nM

COc1ccc(-c2cc3nccn3c(N(C)c3ccncc3)n2)cc1OC [Example 36]
IC50 [2]: 2000 to 10000 nM

COc1ccc(-c2cc3nccn3c(Sc3ccc(CCC(=O)NCCC#N)cc3)n2)cc1OC [Example 23]
IC50 [2]: < 500 nM

COc1ccc(-c2cc3nccn3c(Sc3c(Cl)cccc3Cl)n2)cc1OC [Example 13-10]
IC50 [1]: 500 to 2000 nM

CCSc1nc(-c2ccc(OC)c(OC(C)=O)c2)cc2nccn12 [Example 4-7]
IC50 [1]: < 500 nM
